Experimental data taken from ChEMBL document CHEMBL1153020, “Smart conferring of nuclease resistance to DNA by 3'-end protection using 2',4'-bridged nucleoside-5'-triphosphates” (Bioorg Med Chem Lett, 2009).

Test: Stability assessed as nuclease resistance; call rule not given here
Type: ADME

Q: For `Cc1cn([C@@H]2O[C@@]3(COP(=O)(O)OP(=O)(O)OP(=O)(O)O[C@H]4C[C@H](n5cc(C)c(=O)[nH]c5=O)O[C@@H]4COP(=O)(O)O[C@H]4C[C@H](n5cnc6c(=O)[nH]c(N)nc65)O[C@@H]4COP(=O)(O)O[C@H]4C[C@H](n5cnc6c(N)ncnc65)O[C@@H]4COP(=O)(O)O[C@H]4C[C@H](n5cnc6c(=O)[nH]c(N)nc65)O[C@@H]4COP(=O)(O)O[C@H]4C[C@H](n5cc(C)c(=O)[nH]c5=O)O[C@@H]4COP(=O)(O)O[C@H]4[C@@H](O)[C@H](n5cnc6c(=O)[nH]c(N)nc65)O[C@@H]4COP(=O)(O)O[C@H]4[C@@H](O)[C@H](n5cnc6c(N)ncnc65)O[C@@H]4COP(=O)(O)O[C@H]4C[C@H](n5cnc6c(=O)[nH]c(N)nc65)O[C@@H]4COP(=O)(O)O[C@H]4C[C@H](n5cc(C)c(=O)[nH]c5=O)O[C@@H]4COP(=O)(O)O[C@H]4C[C@H](n5cnc6c(N)ncnc65)O[C@@H]4COP(=O)(O)O[C@H]4C[C@H](n5cnc6c(N)ncnc65)O[C@@H]4COP(=O)(O)O[C@H]4C[C@H](n5cnc6c(=O)[nH]c(N)nc65)O[C@@H]4COP(=O)(O)O[C@H]4C[C@H](n5cc(C)c(=O)[nH]c5=O)O[C@@H]4COP(=O)(O)O[C@H]4C[C@H](n5cnc6c(=O)[nH]c(N)nc65)O[C@@H]4COP(=O)(O)O[C@H]4C[C@H](n5cnc6c(N)ncnc65)O[C@@H]4COP(=O)(O)O[C@H]4C[C@H](n5cnc6c(=O)[nH]c(N)nc65)O[C@@H]4COP(=O)(O)O[C@H]4C[C@H](n5cc(C)c(=O)[nH]c5=O)O[C@@H]4COP(=O)(O)O[C@H]4C[C@H](n5cnc6c(=O)[nH]c(N)nc65)O[C@@H]4COP(=O)(O)O[C@H]4C[C@H](n5cnc6c(N)ncnc65)O[C@@H]4COP(=O)(O)O[C@H]4C[C@H](n5cnc6c(=O)[nH]c(N)nc65)O[C@@H]4COP(=O)(O)O[C@H]4C[C@H](n5cc(C)c(=O)[nH]c5=O)O[C@@H]4COP(=O)(O)O[C@H]4C[C@H](n5cc(C)c(=O)[nH]c5=O)O[C@@H]4COP(=O)(O)O[C@H]4C[C@H](n5cnc6c(=O)[nH]c(N)nc65)O[C@@H]4COP(=O)(O)O[C@H]4C[C@H](n5ccc(N)nc5=O)O[C@@H]4COP(=O)(O)O[C@H]4C[C@H](n5cnc6c(=O)[nH]c(N)nc65)O[C@@H]4COP(=O)(O)O[C@H]4C[C@H](n5cnc6c(=O)[nH]c(N)nc65)O[C@@H]4CO)COC2[C@@H]3O)c(=O)[nH]c1=O`, which Activity is on record?
A: The Activity was “Active”.

Q: Which Activity does the source give for `Cc1cn([C@@H]2O[C@@]3(COP(=O)(O)OP(=O)(O)OP(=O)(O)O[C@H]4C[C@H](n5cc(C)c(=O)[nH]c5=O)O[C@@H]4COP(=O)(O)O[C@H]4C[C@H](n5cnc6c(=O)[nH]c(N)nc65)O[C@@H]4COP(=O)(O)O[C@H]4C[C@H](n5cnc6c(N)ncnc65)O[C@@H]4COP(=O)(O)O[C@H]4C[C@H](n5cnc6c(=O)[nH]c(N)nc65)O[C@@H]4COP(=O)(O)O[C@H]4C[C@H](n5cc(C)c(=O)[nH]c5=O)O[C@@H]4COP(=O)(O)O[C@H]4[C@@H](O)[C@H](n5cnc6c(=O)[nH]c(N)nc65)O[C@@H]4COP(=O)(O)O[C@H]4[C@@H](O)[C@H](n5cnc6c(N)ncnc65)O[C@@H]4COP(=O)(O)O[C@H]4C[C@H](n5cnc6c(=O)[nH]c(N)nc65)O[C@@H]4COP(=O)(O)O[C@H]4C[C@H](n5cc(C)c(=O)[nH]c5=O)O[C@@H]4COP(=O)(O)O[C@H]4C[C@H](n5cnc6c(N)ncnc65)O[C@@H]4COP(=O)(O)O[C@H]4C[C@H](n5cnc6c(N)ncnc65)O[C@@H]4COP(=O)(O)O[C@H]4C[C@H](n5cnc6c(=O)[nH]c(N)nc65)O[C@@H]4COP(=O)(O)O[C@H]4C[C@H](n5cc(C)c(=O)[nH]c5=O)O[C@@H]4COP(=O)(O)O[C@H]4C[C@H](n5cnc6c(=O)[nH]c(N)nc65)O[C@@H]4COP(=O)(O)O[C@H]4C[C@H](n5cnc6c(N)ncnc65)O[C@@H]4COP(=O)(O)O[C@H]4C[C@H](n5cnc6c(=O)[nH]c(N)nc65)O[C@@H]4COP(=O)(O)O[C@H]4C[C@H](n5cc(C)c(=O)[nH]c5=O)O[C@@H]4COP(=O)(O)O[C@H]4C[C@H](n5cnc6c(=O)[nH]c(N)nc65)O[C@@H]4COP(=O)(O)O[C@H]4C[C@H](n5cnc6c(N)ncnc65)O[C@@H]4COP(=O)(O)O[C@H]4C[C@H](n5cnc6c(=O)[nH]c(N)nc65)O[C@@H]4COP(=O)(O)O[C@H]4C[C@H](n5cc(C)c(=O)[nH]c5=O)O[C@@H]4COP(=O)(O)O[C@H]4C[C@H](n5cc(C)c(=O)[nH]c5=O)O[C@@H]4COP(=O)(O)O[C@H]4C[C@H](n5cnc6c(=O)[nH]c(N)nc65)O[C@@H]4COP(=O)(O)O[C@H]4C[C@H](n5ccc(N)nc5=O)O[C@@H]4COP(=O)(O)O[C@H]4C[C@H](n5cnc6c(=O)[nH]c(N)nc65)O[C@@H]4COP(=O)(O)O[C@H]4C[C@H](n5cnc6c(=O)[nH]c(N)nc65)O[C@@H]4CO)COCOC2[C@@H]3O)c(=O)[nH]c1=O` here?
A: Its Activity is “Active”.

Q: With `Cc1cn([C@@H]2O[C@@]3(COP(=O)(O)OP(=O)(O)OP(=O)(O)O[C@H]4C[C@H](n5cc(C)c(=O)[nH]c5=O)O[C@@H]4COP(=O)(O)O[C@H]4C[C@H](n5cnc6c(=O)[nH]c(N)nc65)O[C@@H]4COP(=O)(O)O[C@H]4C[C@H](n5cnc6c(N)ncnc65)O[C@@H]4COP(=O)(O)O[C@H]4C[C@H](n5cnc6c(=O)[nH]c(N)nc65)O[C@@H]4COP(=O)(O)O[C@H]4C[C@H](n5cc(C)c(=O)[nH]c5=O)O[C@@H]4COP(=O)(O)O[C@H]4[C@@H](O)[C@H](n5cnc6c(=O)[nH]c(N)nc65)O[C@@H]4COP(=O)(O)O[C@H]4[C@@H](O)[C@H](n5cnc6c(N)ncnc65)O[C@@H]4COP(=O)(O)O[C@H]4C[C@H](n5cnc6c(=O)[nH]c(N)nc65)O[C@@H]4COP(=O)(O)O[C@H]4C[C@H](n5cc(C)c(=O)[nH]c5=O)O[C@@H]4COP(=O)(O)O[C@H]4C[C@H](n5cnc6c(N)ncnc65)O[C@@H]4COP(=O)(O)O[C@H]4C[C@H](n5cnc6c(N)ncnc65)O[C@@H]4COP(=O)(O)O[C@H]4C[C@H](n5cnc6c(=O)[nH]c(N)nc65)O[C@@H]4COP(=O)(O)O[C@H]4C[C@H](n5cc(C)c(=O)[nH]c5=O)O[C@@H]4COP(=O)(O)O[C@H]4C[C@H](n5cnc6c(=O)[nH]c(N)nc65)O[C@@H]4COP(=O)(O)O[C@H]4C[C@H](n5cnc6c(N)ncnc65)O[C@@H]4COP(=O)(O)O[C@H]4C[C@H](n5cnc6c(=O)[nH]c(N)nc65)O[C@@H]4COP(=O)(O)O[C@H]4C[C@H](n5cc(C)c(=O)[nH]c5=O)O[C@@H]4COP(=O)(O)O[C@H]4C[C@H](n5cnc6c(=O)[nH]c(N)nc65)O[C@@H]4COP(=O)(O)O[C@H]4C[C@H](n5cnc6c(N)ncnc65)O[C@@H]4COP(=O)(O)O[C@H]4C[C@H](n5cnc6c(=O)[nH]c(N)nc65)O[C@@H]4COP(=O)(O)O[C@H]4C[C@H](n5cc(C)c(=O)[nH]c5=O)O[C@@H]4COP(=O)(O)O[C@H]4C[C@H](n5cc(C)c(=O)[nH]c5=O)O[C@@H]4COP(=O)(O)O[C@H]4C[C@H](n5cnc6c(=O)[nH]c(N)nc65)O[C@@H]4COP(=O)(O)O[C@H]4C[C@H](n5ccc(N)nc5=O)O[C@@H]4COP(=O)(O)O[C@H]4C[C@H](n5cnc6c(=O)[nH]c(N)nc65)O[C@@H]4COP(=O)(O)O[C@H]4C[C@H](n5cnc6c(=O)[nH]c(N)nc65)O[C@@H]4CO)NCOC2[C@@H]3O)c(=O)[nH]c1=O` as the compound, how does the Activity read?
A: The Activity was “Active”.

Q: For `Cc1cn([C@H]2C[C@H](OP(=O)(O)OC[C@H]3O[C@@H](n4cnc5c(=O)[nH]c(N)nc54)C[C@@H]3OP(=O)(O)OC[C@H]3O[C@@H](n4cnc5c(N)ncnc54)C[C@@H]3OP(=O)(O)OC[C@H]3O[C@@H](n4cnc5c(=O)[nH]c(N)nc54)C[C@@H]3OP(=O)(O)OC[C@H]3O[C@@H](n4cc(C)c(=O)[nH]c4=O)C[C@@H]3O)[C@@H](COP(=O)(O)O[C@H]3[C@@H](O)[C@H](n4cnc5c(=O)[nH]c(N)nc54)O[C@@H]3COP(=O)(O)O[C@H]3[C@@H](O)[C@H](n4cnc5c(N)ncnc54)O[C@@H]3COP(=O)(O)O[C@H]3C[C@H](n4cnc5c(=O)[nH]c(N)nc54)O[C@@H]3COP(=O)(O)O[C@H]3C[C@H](n4cc(C)c(=O)[nH]c4=O)O[C@@H]3COP(=O)(O)O[C@H]3C[C@H](n4cnc5c(N)ncnc54)O[C@@H]3COP(=O)(O)O[C@H]3C[C@H](n4cnc5c(N)ncnc54)O[C@@H]3COP(=O)(O)O[C@H]3C[C@H](n4cnc5c(=O)[nH]c(N)nc54)O[C@@H]3COP(=O)(O)O[C@H]3C[C@H](n4cc(C)c(=O)[nH]c4=O)O[C@@H]3COP(=O)(O)O[C@H]3C[C@H](n4cnc5c(=O)[nH]c(N)nc54)O[C@@H]3COP(=O)(O)O[C@H]3C[C@H](n4cnc5c(N)ncnc54)O[C@@H]3COP(=O)(O)O[C@H]3C[C@H](n4cnc5c(=O)[nH]c(N)nc54)O[C@@H]3COP(=O)(O)O[C@H]3C[C@H](n4cc(C)c(=O)[nH]c4=O)O[C@@H]3COP(=O)(O)O[C@H]3C[C@H](n4cnc5c(=O)[nH]c(N)nc54)O[C@@H]3COP(=O)(O)O[C@H]3C[C@H](n4cnc5c(N)ncnc54)O[C@@H]3COP(=O)(O)O[C@H]3C[C@H](n4cnc5c(=O)[nH]c(N)nc54)O[C@@H]3COP(=O)(O)O[C@H]3C[C@H](n4cc(C)c(=O)[nH]c4=O)O[C@@H]3COP(=O)(O)O[C@H]3C[C@H](n4cc(C)c(=O)[nH]c4=O)O[C@@H]3COP(=O)(O)O[C@H]3C[C@H](n4cnc5c(=O)[nH]c(N)nc54)O[C@@H]3COP(=O)(O)O[C@H]3C[C@H](n4ccc(N)nc4=O)O[C@@H]3COP(=O)(O)O[C@H]3C[C@H](n4cnc5c(=O)[nH]c(N)nc54)O[C@@H]3COP(=O)(O)O[C@H]3C[C@H](n4cnc5c(=O)[nH]c(N)nc54)O[C@@H]3CO)O2)c(=O)[nH]c1=O`, which Activity is on record?
A: The Activity was “Active”.
